Data: ChEMBL document CHEMBL4725303, “New V1a receptor antagonist. Part 1. Synthesis and SAR development of urea derivatives” (Bioorg Med Chem Lett, 2020)

molecular target: T1, Vasopressin V1a receptor (Homo sapiens, UniProt P37288); test: Antagonist activity at human V1a receptor expressed in human 1321N1 cells assessed as decrease in Arg8-vasopressin-stimulated calcium flux by fluorometric calcium assay; assay type: functional, cell-based
T1 sequence (P37288 whole entry): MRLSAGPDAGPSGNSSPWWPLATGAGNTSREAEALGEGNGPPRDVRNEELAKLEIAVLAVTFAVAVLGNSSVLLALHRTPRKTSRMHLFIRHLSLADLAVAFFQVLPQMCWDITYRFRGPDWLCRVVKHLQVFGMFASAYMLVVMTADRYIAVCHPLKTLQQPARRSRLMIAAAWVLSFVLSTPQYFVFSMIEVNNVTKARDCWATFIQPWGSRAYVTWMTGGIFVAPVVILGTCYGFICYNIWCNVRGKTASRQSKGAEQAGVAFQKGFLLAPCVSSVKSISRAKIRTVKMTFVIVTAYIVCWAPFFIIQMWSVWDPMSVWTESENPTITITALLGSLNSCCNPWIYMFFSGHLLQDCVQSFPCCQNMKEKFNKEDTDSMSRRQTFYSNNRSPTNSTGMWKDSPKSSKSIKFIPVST

SMILES | IC50 [nM]
Cc1ccccc1N1CCN(C(=O)N2CCN(C)c3cc(Cl)ccc32)CC1 | 300
O=C(N1CCN(c2ncccc2Cl)CC1)N1CCNc2cc(Cl)ccc21 | 170
Cc1ccccc1N1CCN(C(=O)N2CCCCc3cc(Cl)ccc32)CC1 | 390
Cc1ccccc1N1CCN(C(=O)N2CN(S(C)(=O)=O)Cc3cc(Cl)ccc32)CC1 | 20
Cc1ccccc1N1CCN(C(=O)N2CCNc3ccc(Cl)cc32)CC1 | 1400
Cc1ccccc1C1CCN(C(=O)N2CCNc3cc(Cl)ccc32)CC1 | 380
Cc1ccccc1N1CCN(C(=O)C2CN(C(=O)C3CC3)Cc3cc(Cl)ccc32)CC1 (stereo in doubt; (+)-44) | 180
Cc1ccccc1N1CCN(C(=O)N2CN(C(=O)C3CCCC3)Cc3cc(Cl)ccc32)CC1 | 11
Cc1cccnc1N1CCN(C(=O)N2CCNc3cc(Cl)ccc32)[C@H](C)C1 | 750

Other lines, results leading:

IC50 [nM] | SMILES
6800 | O=C(N1CCN(c2ccccn2)CC1)N1CCNc2cc(Cl)ccc21
1000 | C[C@H]1CN(C(=O)N2CCNc3cc(Cl)ccc32)CCN1c1ccccn1
1400 | CC(=O)N1CCN(C(=O)N2CCN(c3ccccc3C)CC2)c2ccc(Cl)cc21
40 | Cc1ccccc1N1CCN(C(=O)C2CN(C(=O)C3CCCCC3)Cc3cc(Cl)ccc32)CC1 (racemic)
135 | Cc1ccccc1N1CCN(C(=O)C2CN(C(=O)C(C)C)Cc3cc(Cl)ccc32)CC1 (racemic)
200 | Cc1ccccc1N1CCN(C(=O)N2CCCc3cc(Cl)ccc32)CC1
21 | Cc1ccccc1N1CCN(C(=O)C2CN(C(=O)C3CCCCC3)Cc3cc(Cl)ccc32)CC1 (single isomer, unassigned; (+))
10 | Cc1ccccc1N1CCN(C(=O)N2CN(C(=O)C3CC3)Cc3cc(Cl)ccc32)CC1
40 | Cc1ccccc1N1CCN(C(=O)N2CNCc3cc(Cl)ccc32)CC1
85 | Cc1ccccc1N1CCN(C(=O)N2CN(C)Cc3cc(Cl)ccc32)CC1

molecular target: T1, Vasopressin V1a receptor; test: Displacement of [3H]AVP from human V1a receptor expressed in […] cells assessed as dissociation constant by radioligand binding assay; assay type: cell-based, 1321N1

SMILES | Ki [nM]
Cc1ccccc1N1CCN(C(=O)N2CCN(C)c3cc(Cl)ccc32)CC1 | 7
O=C(N1CCN(c2ncccc2Cl)CC1)N1CCNc2cc(Cl)ccc21 | 6
Cc1ccccc1N1CCN(C(=O)N2CCCCc3cc(Cl)ccc32)CC1 | 5
Cc1ccccc1N1CCN(C(=O)N2CN(S(C)(=O)=O)Cc3cc(Cl)ccc32)CC1 | 5.3
Cc1ccccc1N1CCN(C(=O)N2CCNc3ccc(Cl)cc32)CC1 | 560
Cc1ccccc1C1CCN(C(=O)N2CCNc3cc(Cl)ccc32)CC1 | 3
Cc1ccccc1N1CCN(C(=O)C2CN(C(=O)C3CC3)Cc3cc(Cl)ccc32)CC1 (stereo in doubt; (+)-44) | 5
Cc1ccccc1N1CCN(C(=O)N2CN(C(=O)C3CCCC3)Cc3cc(Cl)ccc32)CC1 | 1
Cc1cccnc1N1CCN(C(=O)N2CCNc3cc(Cl)ccc32)[C@H](C)C1 | 70

More lines, in order of falling Ki, values ahead:

Ki [nM] | SMILES
160 | O=C(N1CCN(c2ccccn2)CC1)N1CCNc2cc(Cl)ccc21
80 | Cc1ccccc1N1CCN(C(=O)C2CN(C(=O)C3CC3)Cc3cc(Cl)ccc32)CC1 (single isomer, unassigned; (-))
62 | C[C@H]1CN(C(=O)N2CCNc3cc(Cl)ccc32)CCN1c1ccccn1
25 | Cc1ccccc1N1CCN(C(=O)C2CN(C(=O)C3CC3)Cc3cc(Cl)ccc32)CC1 (racemic)
23 | Cc1ccccc1N1CCN(C(=O)N2CN(C(=O)C3(c4ccc(F)cc4)CC3)Cc3cc(Cl)ccc32)CC1
13 | CC(=O)N1CCN(C(=O)N2CCN(c3ccccc3C)CC2)c2ccc(Cl)cc21
5 | Cc1ccccc1N1CCN(C(=O)N2CN(C(=O)C3CCCCC3)Cc3cc(Cl)ccc32)CC1
5 | Cc1ccccc1N1CCN(C(=O)C2CN(C(=O)C3CCCCC3)Cc3cc(Cl)ccc32)CC1 (racemic)
5 | Cc1ccccc1N1CCN(C(=O)C2CN(C(=O)C(C)C)Cc3cc(Cl)ccc32)CC1 (racemic)
4 | Cc1ccccc1N1CCN(C(=O)N2CCCc3cc(Cl)ccc32)CC1
4 | Cc1ccccc1N1CCN(C(=O)C2CN(C(=O)C3CCCCC3)Cc3cc(Cl)ccc32)CC1 (single isomer, unassigned; (+))
3.3 | Cc1ccccc1N1CCN(C(=O)N2CN(C(=O)C3CC3)Cc3cc(Cl)ccc32)CC1
3 | Cc1ccccc1N1CCN(C(=O)N2CNCc3cc(Cl)ccc32)CC1
3 | Cc1ccccc1N1CCN(C(=O)N2CN(C)Cc3cc(Cl)ccc32)CC1
